Test results from ChEMBL document CHEMBL1201862, “PubChem BioAssay data set” (2004).
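Grown in 96-well plates, cells were treated for 48 hours with each compound at five concentrations. Insufficient inhibition: endpoint recorded as highest concentration tested. GI50 is the concentration that inhibits growth by half.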 Activity calls are given as the source filed them. Rule as the data show it: active = GI50 up to about 1.1 µM and inactive = higher.

Columns and labels:
Experiment in all cases: NCI-60 cell line screen, 48 h
[1] = system: HCT-116
[2] = system: K562
[3] = system: SN12C
[4] = system: PC-3
[5] = system: MDA-MB-231
[6] = system: COLO 205
[7] = system: HOP-92
[8] = system: NCI-H226
[9] = system: NCI/ADR-RES
[10] = system: MCF7
[11] = system: SF-539
[12] = system: SNB-19
[13] = system: A498
[14] = system: OVCAR-5
[15] = system: UO-31
[16] = system: U-251
[17] = system: BT-549
[18] = system: EKVX
[19] = system: NCI-H522
[20] = system: LOX IMVI
[21] = system: HCC 2998
[22] = system: Malme-3M
[23] = system: MDA-N
[24] = system: SW-620
[25] = system: KM12
[26] = system: OVCAR-8
[27] = system: HL-60
[28] = system: A549
[29] = system: 786-0
[30] = system: SK-MEL-28
[31] = system: CAKI-1
[32] = system: M14
[33] = system: TK-10
[34] = system: DU-145
[35] = system: ACHN
[36] = system: NCI-H460
[37] = system: SK-MEL-5
[38] = system: CCRF-CEM
[39] = system: OVCAR-3
[40] = system: MDA-MB-435
[41] = system: RPMI-8226
[42] = system: SF-295
[43] = system: UACC-257
[44] = system: SK-OV-3
[45] = system: SF-268
[46] = system: SNB-75
[47] = system: SR
[48] = system: SK-MEL-2
[49] = system: HT-29
[50] = system: OVCAR-4
[51] = system: Hs-578T
[52] = system: UACC-62
[53] = system: HCT-15
[54] = system: NCI-H23
[55] = system: HOP-62
[56] = system: IGROV-1
[57] = system: MOLT-4
[58] = system: RXF 393

## COC(=O)[C@H](CCSC)NC(=O)N[C@H](C)c1ccccc1
[1]
  GI50: > 100 µM (inactive)
[2]
  GI50: > 100 µM (inactive)
[3]
  GI50: > 100 µM (inactive)
[4]
  GI50: > 100 µM (inactive)
[5]
  GI50: > 100 µM (inactive)
[6]
  GI50: > 100 µM (inactive)
[7]
  GI50: 43.5 µM (inactive)
[8]
  GI50: > 100 µM (inactive)
[9]
  GI50: 60.7 µM (inactive)
[10]
  GI50: > 100 µM (inactive)
[11]
  GI50: > 100 µM (inactive)
[12]
  GI50: > 100 µM (inactive)
[13]
  GI50: > 100 µM (inactive)
[14]
  GI50: > 100 µM (inactive)
[15]
  GI50: > 100 µM (inactive)
[16]
  GI50: > 100 µM (inactive)
[17]
  GI50: > 100 µM (inactive)
[18]
  GI50: > 100 µM (inactive)
[19]
  GI50: 26.1 µM (inactive)
[20]
  GI50: > 100 µM (inactive)
[21]
  GI50: > 100 µM (inactive)
[22]
  GI50: 24.9 µM (inactive)
[23]
  GI50: > 100 µM (inactive)
[24]
  GI50: > 100 µM (inactive)
[25]
  GI50: > 100 µM (inactive)
[26]
  GI50: > 100 µM (inactive)
[27]
  GI50: > 100 µM (inactive)
[28]
  GI50: > 100 µM (inactive)
[29]
  GI50: > 100 µM (inactive)
[30]
  GI50: > 100 µM (inactive)
[31]
  GI50: > 100 µM (inactive)
[32]
  GI50: > 100 µM (inactive)
[33]
  GI50: > 100 µM (inactive)
[34]
  GI50: > 100 µM (inactive)
[35]
  GI50: > 100 µM (inactive)
[36]
  GI50: > 100 µM (inactive)
[37]
  GI50: > 100 µM (inactive)
[38]
  GI50: > 100 µM (inactive)
[39]
  GI50: > 100 µM (inactive)
[40]
  GI50: > 100 µM (inactive)
[41]
  GI50: > 100 µM (inactive)
[42]
  GI50: > 100 µM (inactive)
[43]
  GI50: 86.7 µM (inactive)
[44]
  GI50: > 100 µM (inactive)
[45]
  GI50: > 100 µM (inactive)
[46]
  GI50: > 100 µM (inactive)
[47]
  GI50: > 100 µM (inactive)
[48]
  GI50: > 100 µM (inactive)
[49]
  GI50: > 100 µM (inactive)
[50]
  GI50: > 100 µM (inactive)
[51]
  GI50: > 100 µM (inactive)
[52]
  GI50: > 100 µM (inactive)
[53]
  GI50: > 100 µM
[54]
  GI50: > 100 µM (inactive)
[55]
  GI50: > 100 µM (inactive)
[56]
  GI50: > 100 µM (inactive)
[57]
  GI50: > 100 µM (inactive)

## COc1ccc(NC(=O)/C(CC2=Nc3ccc([N+](=O)[O-])cc3NC2O)=N\NC(=O)C[N+](C)(C)C)c(OC)c1 (stereo unspecified)
[1]
  GI50: 30.4 µM (inactive)
[3]
  GI50: 61 µM (inactive)
[4]
  GI50: > 100 µM (inactive)
[5]
  GI50: 12.9 µM (inactive)
[6]
  GI50: 43 µM (inactive)
[7]
  GI50: 72.3 µM (inactive)
[8]
  GI50: > 100 µM (inactive)
[9]
  GI50: 40.6 µM (inactive)
[10]
  GI50: > 100 µM (inactive)
[11]
  GI50: 26.5 µM (inactive)
[12]
  GI50: > 100 µM (inactive)
[58]
  GI50: 21.6 µM (inactive)
[14]
  GI50: > 100 µM (inactive)
[15]
  GI50: 34.3 µM (inactive)
[16]
  GI50: 40.7 µM (inactive)
[17]
  GI50: > 100 µM (inactive)
[18]
  GI50: 54.7 µM (inactive)
[19]
  GI50: 18 µM (inactive)
[20]
  GI50: 62.1 µM (inactive)
[21]
  GI50: > 100 µM (inactive)
[23]
  GI50: > 100 µM (inactive)
[24]
  GI50: 94.8 µM (inactive)
[25]
  GI50: 89.7 µM (inactive)
[26]
  GI50: 30.1 µM (inactive)
[27]
  GI50: > 100 µM (inactive)
[28]
  GI50: 40.5 µM (inactive)
[29]
  GI50: 30.1 µM (inactive)
[30]
  GI50: 97.9 µM (inactive)
[31]
  GI50: > 100 µM (inactive)
[32]
  GI50: 56.1 µM (inactive)
[33]
  GI50: > 100 µM (inactive)
[34]
  GI50: 47.3 µM (inactive)
[35]
  GI50: 67.5 µM (inactive)
[36]
  GI50: 40.5 µM (inactive)
[37]
  GI50: 22.2 µM (inactive)
[38]
  GI50: 40.3 µM (inactive)
[39]
  GI50: > 100 µM (inactive)
[40]
  GI50: > 100 µM (inactive)
[42]
  GI50: > 100 µM (inactive)
[43]
  GI50: > 100 µM (inactive)
[44]
  GI50: 89.9 µM (inactive)
[45]
  GI50: > 100 µM (inactive)
[46]
  GI50: > 100 µM (inactive)
[47]
  GI50: 18.4 µM (inactive)
[48]
  GI50: > 100 µM (inactive)
[49]
  GI50: > 100 µM (inactive)
[50]
  GI50: 80 µM (inactive)
[51]
  GI50: > 100 µM (inactive)
[52]
  GI50: > 100 µM (inactive)
[53]
  GI50: 45.9 µM
[54]
  GI50: 84.3 µM (inactive)
[55]
  GI50: 22.2 µM (inactive)
[56]
  GI50: 80.7 µM (inactive)
[57]
  GI50: > 100 µM (inactive)
